In US20250154686A1, “COMPOUND LIBRARY” (CHUGAI SEIYAKU KABUSHIKI KAISHA, priority 2021, published 2025):

Molecular target: T1, Bcl-2 protein (Recombinant Human Bcl-2 Protein) (Homo sapiens, UniProt P10415)
T1 construct: purchased Novus Biologicals NBP2-34889
Experiment: AS-MS evaluation of binding of the Example 4 mixture library (1200 compounds/well) to Bcl-2, ASMS ratio (%)
Conditions: AS-MS, Example 4 mixture library; for ASMS ratio (%) n = 1: Bcl-2, replicate n = 1; for ASMS ratio (%) n = 2: Bcl-2, replicate n = 2
In short: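 A pooled 1200-compound mixture (20 nM each final) was incubated with 20 μM recombinant human Bcl-2 in pH 7.4 Tris-HCl buffer with NaCl, Tween-20 and DTT for 1 h at 23° C. in the dark. Bound ligands were separated by spin-column SEC and measured by reverse-phase LC/MS; ASMS ratio (%) was calculated against protein-free unfiltered standard and protein-free SEC blank.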

T1 sequence (P10415 whole entry): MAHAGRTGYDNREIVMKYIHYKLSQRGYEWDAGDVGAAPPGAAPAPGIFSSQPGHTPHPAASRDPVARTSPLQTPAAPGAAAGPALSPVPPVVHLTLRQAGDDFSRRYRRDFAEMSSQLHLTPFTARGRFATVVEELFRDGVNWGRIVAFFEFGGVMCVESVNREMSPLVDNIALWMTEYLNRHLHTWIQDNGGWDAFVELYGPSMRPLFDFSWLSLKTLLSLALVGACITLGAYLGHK

ASMS ratio (%) n = 1	ASMS ratio (%) n = 2	Compound
0.0%	19.5%	CCOc1cccc(C#Cc2cncc(C(=O)N3CCN(c4ccc(C(=O)NS(=O)(=O)c5ccc(NCCSc6ccccc6)c(C(F)(F)F)c5)nn4)CC3)c2)c1 [Compound B2R009-01, 6-[4-[5-[2-(3-Ethoxyphenyl)ethynyl]pyridine-3-carbonyl]piperazin-1-yl]-N-[4-(2-phenylsulfanylethylamino)-3-(trifluoromethyl)phenyl]sulfonylpyridazine-3-carboxamide]
0.0%	0.0%	CCOc1cncc(C#Cc2cncc(C(=O)N3CCN(c4ccc(C(=O)NS(=O)(=O)c5ccc(NCCSc6ccccc6)c(C(F)(F)F)c5)nn4)CC3)c2)c1 [Compound B2R010-01, 6-[4-[5-[2-(5-Ethoxypyridin-3-yl)ethynyl]pyridine-3-carbonyl]piperazin-1-yl]-N-[4-(2-phenylsulfanylethylamino)-3-(trifluoromethyl)phenyl]sulfonylpyridazine-3-carboxamide]
17.7%	−1.3%	CCOc1cccc(-c2ccccc2CCC(=O)N2CCN(c3ccc(C(=O)NS(=O)(=O)c4ccc(NCCSc5ccccc5)c(C(F)(F)F)c4)nn3)CC2)c1 [Compound B2R011-01, 6-[4-[3-[2-(3-Ethoxyphenyl)phenyl]propanoyl]piperazin-1-yl]-N-[4-(2-phenylsulfanylethylamino)-3-(trifluoromethyl)phenyl]sulfonylpyridazine-3-carboxamide]
15.8%	13.5%	CCOc1cncc(-c2ccccc2CCC(=O)N2CCN(c3ccc(C(=O)NS(=O)(=O)c4ccc(NCCSc5ccccc5)c(C(F)(F)F)c4)nn3)CC2)c1 [Compound B2R012-01, 6-[4-[3-[2-(5-Ethoxypyridin-3-yl)phenyl]propanoyl]piperazin-1-yl]-N-[4-(2-phenylsulfanylethylamino)-3-(trifluoromethyl)phenyl]sulfonylpyridazine-3-carboxamide]
7.5%	7.7%	CCOc1cccc(-c2ccc(C(=O)N3CCN(c4ccc(C(=O)NS(=O)(=O)c5ccc(NCCSc6ccccc6)c(C(F)(F)F)c5)nn4)CC3)c3ccccc23)c1 [Compound B2R013-01, 6-[4-[4-(3-Ethoxyphenyl)naphthalene-1-carbonyl]piperazin-1-yl]-N-[4-(2-phenylsulfanylethylamino)-3-(trifluoromethyl)phenyl]sulfonylpyridazine-3-carboxamide]
18.6%	15.1%	CCOc1cncc(-c2ccc(C(=O)N3CCN(c4ccc(C(=O)NS(=O)(=O)c5ccc(NCCSc6ccccc6)c(C(F)(F)F)c5)nn4)CC3)c3ccccc23)c1 [Compound B2R014-01, 6-[4-[4-(5-Ethoxypyridin-3-yl)naphthalene-1-carbonyl]piperazin-1-yl]-N-[4-(2-phenylsulfanylethylamino)-3-(trifluoromethyl)phenyl]sulfonylpyridazine-3-carboxamide]
9.7%	0.0%	CCOc1cccc(-c2cc(C(=O)N3CCN(c4ccc(C(=O)NS(=O)(=O)c5ccc(NCCSc6ccccc6)c(C(F)(F)F)c5)nn4)CC3)cc(C(C)(C)C)c2)c1 [Compound B2R015-01, 6-[4-[3-tert-Butyl-5-(3-ethoxyphenyl)benzoyl]piperazin-1-yl]-N-[4-(2-phenylsulfanylethylamino)-3-(trifluoromethyl)phenyl]sulfonylpyridazine-3-carboxamide]
9.1%	2.7%	CCOc1cncc(-c2cc(C(=O)N3CCN(c4ccc(C(=O)NS(=O)(=O)c5ccc(NCCSc6ccccc6)c(C(F)(F)F)c5)nn4)CC3)cc(C(C)(C)C)c2)c1 [Compound B2R016-01, 6-[4-[3-tert-Butyl-5-(5-ethoxypyridin-3-yl)benzoyl]piperazin-1-yl]-N-[4-(2-phenylsulfanylethylamino)-3-(trifluoromethyl)phenyl]sulfonylpyridazine-3-carboxamide]
32.9%	27.2%	CCOc1cccc(-c2cc(C(=O)N3CCN(c4ccc(C(=O)NS(=O)(=O)c5ccc(NCCSc6ccccc6)c(C(F)(F)F)c5)nn4)CC3)cc(C(F)(F)F)c2)c1 [Compound B2R017-01, 6-[4-[3-(3-Ethoxyphenyl)-5-(trifluoromethyl)benzoyl]piperazin-1-yl]-N-[4-(2-phenylsulfanylethylamino)-3-(trifluoromethyl)phenyl]sulfonylpyridazine-3-carboxamide]
5.1%	7.8%	CCOc1cncc(-c2cc(C(=O)N3CCN(c4ccc(C(=O)NS(=O)(=O)c5ccc(NCCSc6ccccc6)c(C(F)(F)F)c5)nn4)CC3)cc(C(F)(F)F)c2)c1 [Compound B2R018-01, 6-[4-[3-(5-Ethoxypyridin-3-yl)-5-(trifluoromethyl)benzoyl]piperazin-1-yl]-N-[4-(2-phenylsulfanylethylamino)-3-(trifluoromethyl)phenyl]sulfonylpyridazine-3-carboxamide]
5.2%	14.0%	CCOc1cccc(C#Cc2cc(C(=O)N3CCN(c4ccc(C(=O)NS(=O)(=O)c5ccc(NCCSc6ccccc6)c(C(F)(F)F)c5)nn4)CC3)cc(C(F)(F)F)c2)c1 [Compound B2R019-01, 6-[4-[3-[2-(3-Ethoxyphenyl)ethynyl]-5-(trifluoromethyl)benzoyl]piperazin-1-yl]-N-[4-(2-phenylsulfanylethylamino)-3-(trifluoromethyl)phenyl]sulfonylpyridazine-3-carboxamide]
10.8%	−17.7%	CCOc1cncc(C#Cc2cc(C(=O)N3CCN(c4ccc(C(=O)NS(=O)(=O)c5ccc(NCCSc6ccccc6)c(C(F)(F)F)c5)nn4)CC3)cc(C(F)(F)F)c2)c1 [Compound B2R020-01, 6-[4-[3-[2-(5-Ethoxypyridin-3-yl)ethynyl]-5-(trifluoromethyl)benzoyl]piperazin-1-yl]-N-[4-(2-phenylsulfanylethylamino)-3-(trifluoromethyl)phenyl]sulfonylpyridazine-3-carboxamide]
13.0%	0.0%	CCOc1cccc(-c2cnn(-c3cc(C(=O)N4CCN(c5ccc(C(=O)NS(=O)(=O)c6ccc(NCCSc7ccccc7)c(C(F)(F)F)c6)nn5)CC4)cc(C(F)(F)F)c3)c2)c1 [Compound B2R021-01, 6-[4-[3-[4-(3-Ethoxyphenyl)pyrazol-1-yl]-5-(trifluoromethyl)benzoyl]piperazin-1-yl]-N-[4-(2-phenylsulfanylethylamino)-3-(trifluoromethyl)phenyl]sulfonylpyridazine-3-carboxamide]
14.5%	15.8%	CCOc1cncc(-c2cnn(-c3cc(C(=O)N4CCN(c5ccc(C(=O)NS(=O)(=O)c6ccc(NCCSc7ccccc7)c(C(F)(F)F)c6)nn5)CC4)cc(C(F)(F)F)c3)c2)c1 [Compound B2R022-01, 6-[4-[3-[4-(5-Ethoxypyridin-3-yl)pyrazol-1-yl]-5-(trifluoromethyl)benzoyl]piperazin-1-yl]-N-[4-(2-phenylsulfanylethylamino)-3-(trifluoromethyl)phenyl]sulfonylpyridazine-3-carboxamide]
